Source: PubChem BioAssay (NCI)
“And” between values parts separate entries of the source, which are not always exact repeats. Equal entries are not always repeated.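 In this assay, cells in 96-well plates receive the compound at five concentrations for 48 hours. Endpoints are linearly interpolated between the surrounding concentrations. Here, GI50 denotes the concentration required for 50% inhibition of growth. TGI marks complete inhibition of growth.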

Experiments:
Test in all cases: NCI tumour cell line growth inhibition, 48 h
786-0 renal = tested on: 786-0 renal
ACHN renal = tested on: ACHN renal
CCRF-CEM leukemia = tested on: CCRF-CEM leukemia
NCI-H226 lung = tested on: NCI-H226 lung
NCI-H522 lung = tested on: NCI-H522 lung
SF-295 CNS = tested on: SF-295 CNS
SK-MEL-2 melanoma = tested on: SK-MEL-2 melanoma
SR leukemia = tested on: SR leukemia
U251 CNS = tested on: U251 CNS
UO-31 renal = tested on: UO-31 renal

SMILES | GI50 (786-0 renal) | TGI (786-0 renal) | GI50 (ACHN renal) | TGI (ACHN renal) | GI50 (CCRF-CEM leukemia) | TGI (CCRF-CEM leukemia) | GI50 (NCI-H226 lung) | TGI (NCI-H226 lung) | GI50 (NCI-H522 lung) | TGI (NCI-H522 lung) | GI50 (SF-295 CNS) | TGI (SF-295 CNS) | GI50 (SK-MEL-2 melanoma) | TGI (SK-MEL-2 melanoma) | GI50 (SR leukemia) | TGI (SR leukemia) | GI50 (U251 CNS) | TGI (U251 CNS) | GI50 (UO-31 renal) | TGI (UO-31 renal)
COc1ccc(OC)c(Nc2nc3nonc3nc2Nc2cccc(Br)c2)c1 | 1.71 µM | 13.8 µM | 0.927 µM | 13.3 µM | 0.608 µM | 17.2 µM | 0.588 µM | 40.2 µM | 0.254 µM | 0.775 µM | 0.429 µM | 3.29 µM | 0.509 µM | 3.84 µM | 2.36 µM | 10.9 µM | 0.577 µM | 11.7 µM | 0.622 µM | 53.7 µM
C[P+]1(Cc2ccccc2)CCCC1 | – | > 100 µM | – | > 100 µM | – | > 100 µM | – | > 100 µM | – | > 100 µM | – | > 100 µM | – | > 100 µM | – | > 100 µM | – | > 100 µM | – | > 100 µM
O=C(O)c1ccc2c(c1)C(=O)N(c1ccc(S(=O)(=O)c3ccc(N4C(=O)c5ccc(C(=O)O)cc5C4=O)cc3)cc1)C2=O | – | > 100 µM | – | > 100 µM | – | > 100 µM | – | > 100 µM | – | > 100 µM | – | > 100 µM | – | > 100 µM | – | > 100 µM | – | > 100 µM | – | > 100 µM
O=C1C=C(NCCO)c2nccc3c2c1nc1ccccc13 | 31.5 µM | > 100 µM | 16.3 µM | > 100 µM | 21.3 µM | > 100 µM | 14.8 µM | 59.5 µM | 22.5 µM | 85 µM | 18.5 µM | > 100 µM | 27.7 µM | 88.2 µM | 6.76 µM | > 100 µM | 23.4 µM | > 100 µM | 24.6 µM | > 100 µM
N#Cc1c2ccccc2c(Cc2ccc3c(c2)OCCOCCOCCOCCOCCO3)c2ccccc12 | – | 25.4 µM | – | 21.7 µM | – | > 100 µM | – | 24.3 µM | – | 31.9 µM | – | 21.3 µM | – | 19.9 µM | – | > 100 µM | – | 26.2 µM | – | 15.4 µM
CC(C)(C)[Si](C)(C)OCC1OC(n2cnc3c(=O)[nH]cnc32)CC1O (configuration not stated) | – | > 100 µM | – | > 100 µM | – | > 100 µM | – | > 100 µM | – | > 100 µM | – | > 100 µM | – | > 100 µM | – | > 100 µM | – | > 100 µM | – | > 100 µM
COc1ccc(CN2C(=O)[C@@H]3Cc4c(OC)c(C)c(OC)c(OC)c4[C@H](/C2=C\c2cc(OC)c(OC)c(C)c2OC)N3C(=O)OC(C)C)cc1 | – | > 100 µM | – | > 100 µM | – | > 100 µM | – | 34.1 µM | – | > 100 µM | – | > 100 µM | – | > 100 µM | – | > 100 µM | – | > 100 µM | – | > 100 µM
CC[C@@H](C)/C=C(C)/C=C/C(=O)c1c(O)c(-c2ccc(OC(=O)[C@@]34CC[C@@](C)(C(=O)O3)C4(C)C)cc2)cn(O)c1=O | 1.55 µM | 4.98 µM | 1.32 µM | 11.6 µM | 1.12 µM | > 50 µM | 1.39 µM | > 50 µM | 1.73 µM | > 50 µM | 1.99 µM | 26.9 µM | 15.6 µM | > 50 µM | 1.32 µM | 7.4 µM | 1.64 µM | > 50 µM | 1.32 µM | 7.89 µM
CN(C)NC(=O)/C(=C/c1ccc(Cl)cc1)NC(=O)c1ccccc1 | – | > 100 µM | – | > 100 µM | – | > 100 µM | – | > 100 µM | – | > 100 µM | – | > 100 µM | – | > 100 µM | – | > 100 µM | – | > 100 µM | – | > 100 µM
Cc1ccc(/C=N/NC(=O)c2ccccc2Oc2ccccc2)o1 | > 100 µM | > 100 µM | 28.5 µM | > 100 µM | 30.9 µM | > 100 µM | 39.1 µM | > 100 µM | 25.8 µM | > 100 µM | 27.9 µM | > 100 µM | 25.5 µM | > 90.9 µM | 40 µM | > 100 µM | 52.2 µM | > 100 µM | 44.8 µM | > 100 µM
Cn1ncc(C#N)c1-c1ccc2c(c1)CN([C@H](CN)Cc1cccc(F)c1)C2=O | 0.145 µM | 14.6 µM | 13.6 µM | > 100 µM | 0.932 µM | > 100 µM | 13.6 µM | 65.3 µM | 17.6 µM | 60.3 µM | 0.503 µM | 24.9 µM | 16.6 µM | 44.8 µM | 17.2 µM | 50.7 µM | 0.693 µM | > 86.4 µM | 3.43 µM | 42.5 µM
Cc1ccc(C[As+](c2ccccc2)(c2ccccc2)c2ccccc2)cc1 | 3.15 µM | > 46.4 µM | 3.66 µM | > 100 µM | 1.08 µM | 55 µM | 1.64 µM | > 100 µM | 0.649 µM | 8.38 µM | 0.753 µM | 4.41 µM | 0.887 µM | 4.34 µM | 0.797 µM | 6.07 µM | 0.58 µM | 15.9 µM | 12.4 µM | 97.4 µM
CNC(=O)ON(C(C)=O)C(=O)NC | > 93.8 µM | 34.4 µM | > 60.8 µM | 47.7 µM | 20.1 µM and 6.17 µM | > 65.9 µM and 43 µM | – | 230 µM | – | 73.5 µM | – | 267 µM | 38.3 µM | 98.5 µM | 7.31 µM | > 72.3 µM | 93 µM | 222 µM | – | 114 µM
CCOC(=O)C1=C(C)NC(=O)NC1c1ccc(OC)cc1OC (configuration not stated) | – | > 100 µM | – | > 100 µM | – | > 100 µM | – | > 100 µM | – | > 100 µM | – | > 100 µM | – | > 100 µM | – | > 100 µM | – | > 100 µM | – | > 100 µM
CC1(C)c2ccccc2N2C(c3ccccc3)=NOC21C (configuration not stated) | – | > 100 µM | – | > 100 µM | – | > 100 µM | – | > 100 µM | – | > 100 µM | – | > 100 µM | – | > 100 µM | – | > 100 µM | – | > 100 µM | – | > 100 µM
O=C(O)CCC(c1ccccc1)(c1ccccc1)c1ccccc1 | – | > 100 µM | – | > 100 µM | – | > 100 µM | – | > 100 µM | 55.3 µM | > 100 µM | – | > 100 µM | – | > 84 µM | – | > 89 µM | – | > 100 µM | – | > 100 µM
c1ccc(C2=NOC3C4CCC(C4)C23)cc1 (configuration not stated) | – | > 100 µM | – | > 100 µM | – | > 100 µM | – | > 100 µM | – | > 100 µM | – | > 100 µM | – | > 100 µM | – | > 100 µM | – | > 100 µM | – | > 100 µM
CN(c1ccccc1)c1cc2ccccc2nn1 | – | > 100 µM | – | > 100 µM | – | > 100 µM | – | > 100 µM | – | > 100 µM | – | > 100 µM | – | > 100 µM | – | > 100 µM | – | > 100 µM | – | > 100 µM
NS(=O)(=O)c1ccc(N=Nc2ccc[nH]c2=O)cc1 | – | > 100 µM | – | > 100 µM | – | 74.6 µM | – | > 100 µM | – | > 100 µM | – | > 100 µM | – | > 100 µM | – | > 100 µM | – | > 100 µM | – | > 100 µM
C/C=C(\N=C=S)C(=O)OC1C(COC(C)=O)OC([C@]2(O)CC(=O)C(=N)C(C(=O)O)=C2O)C(O)C1OC1CC(OC)C(O)([C@@H](C)OC(=O)[C@@H](C)CC)C(C)O1 (some centres not stated) | – | 26.6 µM | – | 33.1 µM | – | 7.45 µM | – | 39.5 µM | – | 5.32 µM | – | 37.2 µM | – | 20 µM | – | 23.2 µM | – | 21.8 µM | – | 33.3 µM
